# Numbered stars: 1 amine (or outer) side, 2 acyl side, 3 side chain; on linkers, the order of the positions; unused ones are H or OH. Bridge positions count the residues as written; N and C are the ends. Square brackets hold non-standard residues; d marks the D form. Peptide text beside a SMILES is read from it. * marks the point of attachment. ξ: configuration not given here. X39 = COc1cccc(-c2ccc(C[C@H](N[*:1])C(=O)[*:2])cc2)c1; X36 = O=C([C@H](Cc1ccc(-c2ccsc2)cc1)N[*:1])[*:2]; Bip = N[C@@H](Cc1ccc(-c2ccccc2)cc1)C(=O)O; Lys(Me3) = C[N+](C)(C)CCCC[C@H](N)C(=O)O; Phe(3-OMe) = COc1cccc(C[C@H](N)C(=O)O)c1; Phe(3-Me) = Cc1cccc(C[C@H](N)C(=O)O)c1; Phe(2-F) = N[C@@H](Cc1ccccc1F)C(=O)O; Bta = N[C@@H](Cc1csc2ccccc12)C(=O)O; Val(3-OH) = CC(C)(O)[C@H](N)C(=O)O; hArg = N=C(N)NCCCC[C@H](N)C(=O)O; 3Pal = N[C@@H](Cc1cccnc1)C(=O)O; 4Pal = N[C@@H](Cc1ccncc1)C(=O)O; Cha = N[C@@H](CC1CCCCC1)C(=O)O; Cit = NC(=O)NCCC[C@H](N)C(=O)O; Ile(3ξ) = CCC(C)[C@H](N)C(=O)O; AllylGly = C=CC[C@H](N)C(=O)O; Thr(3ξ) = CC(O)[C@H](N)C(=O)O; Carboxymethyl = O=C(O)C*; NMeA = CN[C@@H](C)C(=O)O; Nle = CCCC[C@H](N)C(=O)O; dAbu = CC[C@@H](N)C(=O)O; Dab = NCC[C@H](N)C(=O)O; Dap = NC[C@H](N)C(=O)O; Propargyl = C#CC*; ξC = NC(CS)C(=O)O
# Molecular target: T1, PE-labeled human PD-L1-Ig binding to Jurkat cell line over-expressing human PD-1 (Jurkat-PD-1) (Homo sapiens, UniProt Q15116)
# T1 construct: expressed in transfected cells; host or cells: Jurkat
# Assay: Jurkat-PD-1 Cell Binding High-Content Screening Assay (CBA): Method 1
# Settings: Jurkat-hPD-1 cells, PE-labeled PD-L1-Ig 20 nM final; read-out: Jurkat HPDL1 PD1 IC50 (uM) (Method 1)
# T1 sequence (Q15116 25-288): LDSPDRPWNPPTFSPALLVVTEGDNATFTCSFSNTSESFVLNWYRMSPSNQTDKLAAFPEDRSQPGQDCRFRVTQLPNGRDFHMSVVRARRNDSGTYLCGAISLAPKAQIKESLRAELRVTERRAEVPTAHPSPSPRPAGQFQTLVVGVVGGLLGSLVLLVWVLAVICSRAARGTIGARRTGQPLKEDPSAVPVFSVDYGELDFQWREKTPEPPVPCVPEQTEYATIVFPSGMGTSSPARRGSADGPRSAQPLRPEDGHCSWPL
row,Compound,IC50
1,CC(C)C[C@@H]1NC(=O)[C@H](CCN)NC(=O)[C@@H](CC(C)C)NC(=O)[C@H](C)N(C)C(=O)[C@H](CCCNC(=N)N)NC(=O)[C@H](Cc2ccc(-c3ccccc3)cc2)NC(=O)[C@H](C(C)C)NC(=O)[C@H](Cc2c[nH]c3ccccc23)NC(=O)[C@H](CC(=O)O)NC(=O)[C@H](Cc2ccccc2F)NC(=O)[C@H](CN)NC(=O)CSC[C@@H](C(=O)N[C@@H](C)C(N)=O)NC(=O)[C@H]([C@@H](C)O)NC(=O)[C@H](C(C)C)NC1=O [Compound 1454] ({CH2CO}-[Dap][Phe(2-F)]DWV[Bip]R[NMeA][dL][Dab]LVTCA-NH2; thioether N-14),0.02 µM
2,COc1cccc(C[C@@H]2NC(=O)[C@H](Cc3cccnc3)NC(=O)CSC[C@@H](C(=O)NCC(N)=O)NC(=O)[C@H](CO)NC(=O)[C@H](C(C)C)NC(=O)[C@H](CC(C)C)NC(=O)[C@H](CC(N)=O)NC(=O)[C@@H](CC(C)C)NC(=O)[C@H](C)N(C)C(=O)[C@H](C(C)C)NC(=O)[C@H](Cc3ccc(-c4ccccc4)cc3)NC(=O)[C@H](CC(C)C)NC(=O)[C@H](Cc3c[nH]c4ccccc34)NC(=O)[C@H](CC(=O)O)NC2=O)c1 [Compound 1524] ({CH2CO}-[3Pal][Phe(3-OMe)]DWL[Bip]V[NMeA][dL]NLVSCG-NH2; thioether N-14),0.01 µM
3,CC(C)C[C@@H]1NC(=O)[C@H](C)NC(=O)[C@@H](C)NC(=O)[C@H](C)N(C)C(=O)[C@H](CCC(=O)O)NC(=O)[C@H](Cc2ccc(-c3ccccc3)cc2)NC(=O)[C@H](CC(C)C)NC(=O)[C@H](Cc2c[nH]c3ccccc23)NC(=O)[C@H](CC(=O)O)NC(=O)[C@H](Cc2ccc(O)cc2)NC(=O)[C@H](Cc2ccccc2)NC(=O)CSC[C@@H](C(=O)N[C@@H](C)C(N)=O)NC(=O)[C@H](CO)NC(=O)[C@H](C(C)C)NC1=O [Compound 1785] ({CH2CO}-FYDWL[Bip]E[NMeA][dA]ALVSCA-NH2; thioether N-14),0.09 µM
4,CC(C)C[C@H]1NC(=O)[C@H](C)N(C)C(=O)[C@H](CCC(=O)O)NC(=O)[C@H](Cc2ccc(-c3ccccc3)cc2)NC(=O)[C@H](C(C)C)NC(=O)[C@H](Cc2c[nH]c3ccccc23)NC(=O)[C@H](CC(=O)O)NC(=O)[C@H](Cc2ccc(O)cc2)NC(=O)[C@H](CCCCNC(=N)N)NC(=O)CSC[C@@H](C(=O)NCC(N)=O)NC(=O)[C@H](C(C)O)NC(=O)[C@H](C(C)C)NC(=O)[C@H](CC2CCCCC2)NC(=O)[C@H](CCN)NC1=O (stereo partly drawn) [Compound 2094] ({CH2CO}-[hArg]YDWV[Bip]E[NMeA][dL][Dab][Cha]V[Thr(3ξ)]CG-NH2; thioether N-14),0.02 µM
5,CC(C)C[C@@H]1NC(=O)[C@H](CCCNC(=N)N)NC(=O)[C@H](Cc2csc3ccccc23)NC(=O)[C@H](C)N(C)C(=O)[C@H](CCCNC(=N)N)NC(=O)[C@H](Cc2ccc(-c3ccccc3)cc2)NC(=O)[C@H](C(C)C)NC(=O)[C@H](Cc2c[nH]c3ccccc23)NC(=O)[C@H](CC(=O)O)NC(=O)[C@H](Cc2ccc(O)cc2)NC(=O)[C@H](CC(N)=O)NC(=O)CSC[C@@H](C(=O)N[C@@H](C)C(N)=O)NC(=O)[C@H](CO)NC(=O)[C@H](C(C)C)NC1=O [Compound 1055] ({CH2CO}-NYDWV[Bip]R[NMeA][Bta]RLVSCA-NH2; thioether N-14),0.11 µM
6,C=CC[C@@H]1NC(=O)[C@H](CC(C)C)NC(=O)[C@H](CC(N)=O)NC(=O)[C@@H](CC(C)C)NC(=O)[C@H](C)N(C)C(=O)[C@H](CC=C)NC(=O)[C@H](Cc2ccc(-c3ccccc3)cc2)NC(=O)[C@H](CC(C)C)NC(=O)[C@H](Cc2cccc(C)c2)NC(=O)[C@H](CC(=O)O)NC(=O)[C@H](Cc2ccncc2)NC(=O)[C@H](Cc2ccc(OCC(=O)O)cc2)NC(=O)CSCC(C(=O)NCC(N)=O)NC(=O)[C@H](CO)NC1=O (stereo partly drawn) [Compound 1881] ({CH2CO}-Y(Carboxymethyl)[4Pal]D[Phe(3-Me)]L[Bip][AllylGly][NMeA][dL]NL[AllylGly]S[ξC]G-NH2; thioether N-14),0.1 µM
7,COc1cccc(-c2ccc(C[C@@H]3NC(=O)[C@H](CC(C)C)NC(=O)[C@H](Cc4c[nH]c5ccccc45)NC(=O)[C@H](CC(=O)O)NC(=O)[C@H](Cc4ccc(O)cc4)NC(=O)[C@H](Cc4ccccc4)NC(=O)CSC[C@@H](C(=O)N[C@@H](C)C(N)=O)NC(=O)[C@H](CO)NC(=O)[C@H](C(C)C)NC(=O)[C@H](CC(C)C)NC(=O)[C@H](CC(N)=O)NC(=O)[C@@H](C)NC(=O)[C@H](C)N(C)C(=O)[C@H](C(C)C)NC3=O)cc2)c1 [Compound 1798] ({CH2CO}-FYDWL[X39]V[NMeA][dA]NLVSCA-NH2; thioether N-14),0.17 µM
8,CCCC[C@@H]1NC(=O)[C@H](CCCNC(=N)N)NC(=O)[C@@H](CC(C)C)NC(=O)[C@H](C)N(C)C(=O)[C@H]([C@@H](C)CC)NC(=O)[C@H](Cc2ccc(-c3ccccc3)cc2)NC(=O)[C@H](C(C)C)NC(=O)[C@H](Cc2c[nH]c3ccccc23)NC(=O)[C@H](CC(=O)O)NC(=O)[C@H](Cc2ccc(O)cc2)NC(=O)[C@H](Cc2ccccc2)NC(=O)CSC[C@@H](C(=O)N[C@@H](C)C(N)=O)NC(=O)[C@H]([C@@H](C)O)NC(=O)[C@H](C(C)C)NC1=O [Compound 1499] ({CH2CO}-FYDWV[Bip]I[NMeA][dL]R[Nle]VTCA-NH2; thioether N-14),0.14 µM
9,CC(C)C[C@@H]1NC(=O)[C@H](CCN)NC(=O)[C@@H](CC(C)C)NC(=O)[C@H](C)N(C)C(=O)[C@H](CCCNC(=N)N)NC(=O)[C@H](Cc2ccc(-c3ccsc3)cc2)NC(=O)[C@H](C(C)C)NC(=O)[C@H](Cc2c[nH]c3ccccc23)NC(=O)[C@H](CC(=O)O)NC(=O)[C@H](Cc2ccc(O)cc2)NC(=O)[C@H](CC(N)=O)NC(=O)CSC[C@@H](C(=O)N[C@@H](C)C(N)=O)NC(=O)[C@H]([C@@H](C)O)NC(=O)[C@H](C(C)C)NC1=O [Compound 1224] ({CH2CO}-NYDWV[X36]R[NMeA][dL][Dab]LVTCA-NH2; thioether N-14),0.04 µM
10,C#CCOc1ccc(C[C@@H]2NC(=O)[C@H](CC(N)=O)NC(=O)CSC[C@@H](C(=O)N[C@@H](C)C(N)=O)NC(=O)[C@H]([C@@H](C)O)NC(=O)[C@H](C(C)C)NC(=O)[C@H](CC(C)C)NC(=O)[C@H](CCN)NC(=O)[C@@H](CC(C)C)NC(=O)[C@H](C)N(C)C(=O)[C@H](CCCNC(=N)N)NC(=O)[C@H](Cc3ccc(-c4ccccc4)cc3)NC(=O)[C@H](C(C)C)NC(=O)[C@H](Cc3c[nH]c4ccccc34)NC(=O)[C@H](CC(=O)O)NC2=O)cc1 [Compound 1208] ({CH2CO}-NY(Propargyl)DWV[Bip]R[NMeA][dL][Dab]LVTCA-NH2; thioether N-14),0.14 µM
11,CC[C@H](C)[C@@H]1NC(=O)[C@H](Cc2ccc(-c3ccccc3)cc2)NC(=O)[C@H](C(C)(C)O)NC(=O)[C@H](Cc2cccc(C)c2)NC(=O)[C@H](CC(=O)O)NC(=O)[C@H](Cc2ccc(O)cc2)NC(=O)[C@H](CC(N)=O)NC(=O)CSC[C@@H](C(=O)N[C@@H](CCN)C(N)=O)NC(=O)[C@H]([C@@H](C)O)NC(=O)[C@H](C(C)C)NC(=O)[C@H](CC2CCCCC2)NC(=O)[C@H](CCN)NC(=O)[C@@H](CC(C)C)NC(=O)[C@H](C)N(C)C1=O [Compound 1691] ({CH2CO}-NYD[Phe(3-Me)][Val(3-OH)][Bip]I[NMeA][dL][Dab][Cha]VTC[Dab]-NH2; thioether N-14),0.02 µM
12,CCC(C)[C@@H]1NC(=O)[C@H](Cc2ccc(-c3ccccc3)cc2)NC(=O)[C@H](C(C)C)NC(=O)[C@H](Cc2c[nH]c3ccccc23)NC(=O)[C@H](CC(=O)O)NC(=O)[C@H](Cc2ccc(O)cc2)NC(=O)[C@H](CCCC[N+](C)(C)C)NC(=O)CSCC(C(=O)NCC(=O)O)NC(=O)[C@H](C(C)O)NC(=O)[C@H](C(C)C)NC(=O)[C@H](CC2CCCCC2)NC(=O)[C@H](CCN)NC(=O)[C@@H](CC(C)C)NC(=O)[C@H](C)N(C)C1=O (stereo partly drawn) [Compound 2217] ({CH2CO}-[Lys(Me3)]YDWV[Bip][Ile(3ξ)][NMeA][dL][Dab][Cha]V[Thr(3ξ)][ξC]G-OH; thioether N-14),0.01 µM
13,CC(C)C[C@@H]1NC(=O)[C@H](CCN)NC(=O)[C@@H](CC(C)C)NC(=O)[C@H](C)N(C)C(=O)[C@H](CCCNC(N)=O)NC(=O)[C@H](Cc2ccc(-c3ccccc3)cc2)NC(=O)[C@H](C(C)C)NC(=O)[C@H](Cc2c[nH]c3ccccc23)NC(=O)[C@H](CC(=O)O)NC(=O)[C@H](Cc2ccncc2)NC(=O)[C@H](Cc2cccnc2)NC(=O)CSC[C@@H](C(=O)N[C@@H](C)C(N)=O)NC(=O)[C@H]([C@@H](C)O)NC(=O)[C@H](C(C)C)NC1=O [Compound 1333] ({CH2CO}-[3Pal][4Pal]DWV[Bip][Cit][NMeA][dL][Dab]LVTCA-NH2; thioether N-14),0.02 µM
14,CC[C@H]1NC(=O)[C@H](C)N(C)C(=O)[C@H](CCCNC(=N)N)NC(=O)[C@H](Cc2ccc(-c3ccccc3)cc2)NC(=O)[C@H](C(C)C)NC(=O)[C@H](Cc2c[nH]c3ccccc23)NC(=O)[C@H](CC(=O)O)NC(=O)[C@H](Cc2ccc(O)cc2)NC(=O)[C@H](Cc2ccccc2)NC(=O)CSC[C@@H](C(=O)N[C@@H](C)C(N)=O)NC(=O)[C@H]([C@@H](C)O)NC(=O)[C@H](C(C)C)NC(=O)[C@H](CC(C)C)NC(=O)[C@H](CCCNC(=N)N)NC1=O [Compound 1069] ({CH2CO}-FYDWV[Bip]R[NMeA][dAbu]RLVTCA-NH2; thioether N-14),0.22 µM
15,Cc1cccc(C[C@@H]2NC(=O)[C@H](CC(=O)O)NC(=O)[C@H](Cc3ccc(OCC(=O)O)cc3)NC(=O)[C@H](CC(N)=O)NC(=O)CSC[C@@H](C(N)=O)NC(=O)[C@H](CCC(N)=O)NC(=O)[C@H](C(C)C)NC(=O)[C@H](CC3CCCCC3)NC(=O)[C@H](CCN)NC(=O)[C@@H](CC(C)C)NC(=O)[C@H](C)N(C)C(=O)[C@H](Cc3ccc(OCC(=O)O)cc3)NC(=O)[C@H](Cc3ccc(-c4ccccc4)cc3)NC(=O)[C@H](Cc3ccc(OCC(=O)O)cc3)NC2=O)c1 [Compound 1665] ({CH2CO}-NY(Carboxymethyl)D[Phe(3-Me)]Y(Carboxymethyl)[Bip]Y(Carboxymethyl)[NMeA][dL][Dab][Cha]VQC-NH2; thioether N-14),0.09 µM
